Source: patent US7271148B2, “Inhibition of cellular proteases” (The Board of Regents of The University of Texas System, priority 1999, dated 2007)

Tested on: p21^cip1 abundance in mock-infected LU cells
Test: Western blot of p21cip1 abundance in mock-infected, density-arrested LU cells
Format: cell-based, human
Details: E64d 100 μM, mock-infected cells
Description: Cell culture and growth arrest. LU cells (3) were propagated in Eagle's minimum essential medium containing 10% fetal bovine serum and penicillin (100 units/ml)/streptomycin (100 μg/ml) in a 5% CO2 in air atmosphere. The cells were density-arrested as described previously in detail (18).
Virus stocks and productive infection. The AD169 strain of HCMV was propagated in LU cells as previously described in detail (6). The infectivity of virus stocks was determined by plaque assay (3). Virus stocks typically had infectivities between 8.0×10^6 and 4.0×10^7 plaque-forming units (PFU)/milliliter. LU cells were infected with HCMV as described in detail by Bresnahan et al. (18). Virus stocks and cell cultures were routinely examined for mycoplasma.
Western blots. Polyclonal or monoclonal antibody for p21^cip1 was obtained from Santa Cruz Biotechnology, Inc. (Santa Cruz, Calif.). Monoclonal antibodies against m-calpain, μ-calpain or calpastatin were generously provided by Dr. R. I. Mellgren (see also 75). Cells were harvested as described previously (18) by dislodging the cells with a cell lifter in phosphate buffered saline. The cells were collected by sedimentation and lysed in NP-40 lysis buffer [50 mM Tris, pH 7.4, 50 mM NaCl, 0.5% NP-40, and 1 mM NaVO3, 50 mM NaF, 1mM phenylmethylsulfonyl fluoride (PMSF), 1 mM dithiothreitol (DTT), 25 μg/ml trypsin inhibitor, 25 μg/ml aprotinin, 1 mM benzamide, and 25 μg/ml pepstatin A added just before use]. Cellular debris was removed by sedimentation and the supernatant fluids were reserved. The protein concentration was determined by the BCA protein assay (Pierce, Rockford, Ill.). Whole cell extracts (40 μg/lane) were fractionated by SDS-polyacrylamide gel electrophoresis (PAGE), and the polypeptides were transferred to nitrocellulose membranes (Bio-Rad Laboratories, Hercules, Calif.) as described previously (18). Antigen-antibody reactions were detected with the enhanced chemiluminescent assay (Amersham Pharmacia Biotech) following the manufacturer's recommendations.
FIGS. 5 and 6. The effect of MG132, an inhibitor of proteasome degradation, on p21^cip1 abundance in HCMV- or mock-infected, density-arrested LU cells. 5. LU cells were density arrested, as described in Materials and Methods. The cell cultures were HCMV (5 PFU/cell)- or mock-infected and then exposed to selected concentrations of MG132 at 24 hr PI. Cell lysates were prepared at 30 hr PI (i.e., 6 hr after […] treatment), and 40 μg of protein from each lysate was resolved by SDS-PAGE. The proteins were transferred to nitrocellulose and probed with antibodies against p21^cip1. Control, cells cultured in the absence of MG132 or its solvent, DMSO. 0, DMSO solvent control, consisting of cells treated with the same concentration of DMSO (0.1%) present in the cultural fluids containing highest concentration of MG132 (10 μM). 6. Represents the abundance of p21^cip1 after MG132 treatment determined by densitometry of the data illustrated in FIG. 5. The data for mock-infected cells (open bars) were calculated relative to the p21^cip1 abundance in untreated mock-infected cells, while the data for HCMV-infected cells (closed bars) were determined relative to the p21^cip1 abundance in untreated HCMV-infected cells.
FIGS. 7 and 8. […]
At the times indicated in the FIG., whole cell lysates were prepared, and 40 μg of protein from each lysate was analyzed by SDS-PAGE. […]

`CC(C)C[C@H](NC(=O)[C@H]1O[C@@H]1C(=O)O)C(=O)NCCCCN=C(N)N` (relative stereo) [E64d, trans-epoxysuccinyl-L-leucylamido (4-guanidino)-butane] was tested, and the “effect on p21^cip1 levels in mock-infected cells (in words)” value was “little, if any, effect” and the “increase in p21^cip1” value (3 hr post-treatment (treatment from 48 hr PI)) was about 56%.
